# Where two headings read alike, the source gives them in different places.
# How the values were obtained:
# [1] = target: T1, S. aureus RNase P (RnpA+rnpB) (Staphylococcus aureus, UniProt P0A0H5); assay: RNase P activity assay (precursor tRNA processing); assay type: biochemical; settings: gel densitometry
# T1 sequence (P0A0H5 1-117): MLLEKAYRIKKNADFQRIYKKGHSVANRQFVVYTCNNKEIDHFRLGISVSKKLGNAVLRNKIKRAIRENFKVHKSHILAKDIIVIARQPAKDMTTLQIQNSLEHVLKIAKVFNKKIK
# Protocol: The RNase P inhibitors described herein were tested for activity toward RNase P. S. aureus RNase P activity assays were performed in low salt buffer (50 mM Tris-HCl pH 8.0, 5 mM MgCl2) or in high salt buffer (50 mM Tris-HCl pH 8.0, 100 mM MgCl2, 800 mM NH4Cl). For all reactions, ptRNATyr, tRNATyr, or rnpB RNA species were first denatured by heating to 95° C. for 3 minutes, and then slowly cooling the mixtures to room temperature. RNase P was reconstituted by mixing an equal molar ratio of RnpB and RnpA for 15 min at 37° C. Precursor tRNA processing reactions (20 μL) were performed by mixing 1.25 pmol RNase P (RnpA+rnpB), RnpA, or rnpB with an equal volume of 2× low salt buffer or 2× high salt buffer and 10 pmol ptRNATyr. Mixtures were incubated for 15 min at 37° C. Reactions were stopped by adding 20 μL 2×RNA loading dye (95% formamide, 0.025% SDS, 0.025% bromophenol blue, 0.025% xylene cyanol FF, 0.5 mM EDTA), and 30 μL of each sample was electrophoresed in a 7 M urea/8% polyacrylamide gel and was then stained with ethidium bromide (0.5 μg/ml). Where indicated, reactions were repeated in the presence of the indicated amount of putative RnpA inhibitors or dimethyl sulfoxide (DMSO). A FluorChem 5500 imaging system was used to visualize the RNA, and the relative abundance of the mature tRNATyr band in the positive control (RNase P+DMSO) or in samples containing test compounds was measured using Image J densitometry software (NIH). The percent RNase P activity was then calculated using the following calculation: (test compound tRNATyr signal/positive control tRNATyr signal)*100.
# RnpA = target: T2, RnpA (Staphylococcus aureus, UniProt P0A0H5); assay: RnpA mRNA degradation activity assay; assay type: biochemical
# T2 sequence (P0A0H5 1-117): T1 sequence (P0A0H5 1-117)
# Protocol: The RNase P inhibitors described herein were tested for activity toward RnpA mRNA degradation activity. Either 1 μg of total S. aureus RNA or 1 pmol of in vitro synthesized spa mRNA was incubated with 20 pmol RnpA at 37° C. for 15 to 30 min in a reaction buffer (50 mM Tris-HCl pH 8.0, 2 mM NaCl, 2 mM MgCl2) in the absence or presence of the indicated compound. Reactions were stopped by adding an equal volume of 2×RNA loading dye (95% formamide, 0.025% SDS, 0.025% bromophenol blue, 0.025% xylene cyanol FF, 0.5 mM EDTA), run on a denaturing 1.0% agarose-0.66 M formaldehyde gel and stained with ethidium bromide. RNA substrates and corresponding degradation products were visualized using a FluorChem 5500 system (Alpha Innotech; San Leandro, Calif.). The inhibitory effects of the test compounds were measured using Image J densitometry software (National Institutes of Health; Bethesda, Md.) to quantify the signal intensity of the RNA band(s) in the negative control (RNA alone), positive control (RnpA+RNA+DMSO), and experimental samples (RnpA+RNA+test compound). The percent enzyme inhibition of test compounds was calculated using the following equation: Percent inhibition=[(experimental signal-positive control)/(negative control signal-positive control signal)]*100.
# [2] = system: Staphylococcus aureus strain UAMS-1; assay: Antimicrobial susceptibility testing (MIC, broth microdilution); assay type: cell-based; settings: S. aureus UAMS-1, Mueller Hinton broth, 37° C.
# Protocol: The RNase P inhibitors described herein were tested for antimicrobial activity toward Staphylococcus aureus strain UAMS-1. Individual wells of a 96-well microtiter plate were inoculated with ˜1×10^5 colony-forming units (CFU) of the indicated organism, containing two-fold increasing concentrations (from 0 to 256 μg mL^−1) of the indicated antibiotic or putative RnpA inhibitor, and incubated at 37° C. for 18 hours in Mueller Hinton broth. The MIC was defined as the lowest concentration of antibiotic in which there was no visible bacterial growth in the wells. Minimum bactericidal concentration testing was performed by enumerating the bacterial cells in each of the wells containing treatments at and above the MIC.
# [3] = ptRNATyr processing, read-out: RNase P IC50
# [4] = RnpA mRNA degradation, gel densitometry, read-out: RnpA IC50
# [5] = Staphylococcus aureus, UAMS1, 18 h, read-out: MIC
SMILES,"IC50 [1, 3]",IC50 (RnpA; [4]),"MIC [2, 5]",IC50 (RnpA),MIC ([2]; 18 hours),"IC50 ([1]; RNase P IC50, ptRNATyr processing)","MIC ([2]; Staphylococcus aureus, UAMS1, 18 hours, read-out: MIC)"
CC(C)c1ccc(OCC(=O)NNC(=O)c2ccco2)cc1 [MC-190034],> 500 µM,> 500 µM,> 256 mg/L,,,,
CC(C)c1ccc(OCC(=O)NNC(=O)c2cccs2)cc1 [MC-190035],> 500 µM,> 500 µM,> 256 mg/L,,,,
CC(C)c1ccc(OCC(=O)NNC(=O)c2ccsc2)cc1 [MC-190036],> 500 µM,> 500 µM,> 256 mg/L,,,,
CC(C)c1ccc(OCC(=O)NNC(=O)Cc2ccco2)cc1 [MC-190038],> 500 µM,> 500 µM,> 256 mg/L,,,,
CC(C)c1ccc(OCC(=O)NNC(=S)NC(=O)c2cnco2)cc1 [MC-190039],,,64 mg/L,> 500 µM,,,
Cc1ccc(C(=O)NNC(=O)COc2ccc(C(C)C)cc2)o1 [MC-190041],385 µM,470 µM,> 256 mg/L,,,,
Cc1ccoc1C(=O)NC(=S)NNC(=O)COc1ccc(C(C)C)cc1 [MC-190043],150 µM,20 µM,32 mg/L,,,,
CC(C)c1ccc(OCC(=O)NNC(=S)NC(=O)c2ccncc2)cc1 [MC-190050],150 µM,,128 mg/L,> 500 µM,,,
CC(C)c1ccc(OCC(=O)NNC(=O)c2cc3ccccc3[nH]2)cc1 [MC-190051],2 µM,45 µM,128 mg/L,,,,
CC(C)c1ccc(OCC(=O)NNC(=O)c2cc3ccccc3n2C)cc1 [MC-190057],70 µM,> 500 µM,> 256 mg/L,,,,
COc1ccc2cc(C(=O)NNC(=O)COc3ccc(C(C)C)cc3)[nH]c2c1 [MC-190059],80 µM,150 µM,> 256 mg/L,,,,
O=C(NC(=S)NNC(=O)c1ccccc1O)c1ccco1 [MC-190069],470 µM,> 500 µM,,,64 mg/L,,
COc1ccc(OCC(=O)NNC(=S)NC(=O)c2ccco2)cc1 [MC-190070],> 500 µM,> 500 µM,64 mg/L,,,,
O=C(CCc1ccccc1)NNC(=S)NC(=O)c1ccco1 [MC-190080],,,> 128 mg/L,,,,
CC(C)c1ccc(OCC(=O)NNC(=S)NC(=O)c2cnc3ccccc3c2)cc1 [MC-190082],,,> 128 mg/L,,,,
CC(C)c1ccc(CCNc2c(NCc3ccco3)c(=O)c2=O)cc1 [MC-190083],,,> 128 mg/L,,,,
CC(C)c1ccc(OCC(=O)NNC(=S)NC(=O)Cc2ccco2)cc1 [MC-190084],,,16 mg/L,,,,
Cc1ccc(CNc2c(NCCc3ccc(C(C)C)cc3)c(=O)c2=O)o1 [MC-190085],,,> 128 mg/L,,,,
CC(C)c1ccc(CCNc2c(NCc3ccccn3)c(=O)c2=O)cc1 [MC-190086],,,> 128 mg/L,,,,
CC(C)c1ccc(CCNc2c(NCc3nc4ccccc4[nH]3)c(=O)c2=O)cc1 [MC-190087],,,> 128 mg/L,,,,
CC(C)c1ccc(CCNc2c(NCc3cc4ccccc4o3)c(=O)c2=O)cc1 [MC-190088],,,> 128 mg/L,,,,
CC(C)c1ccc(CCNc2c(NCCc3ccco3)c(=O)c2=O)cc1 [MC-190090],,50 µM,256 mg/L,,,,
CC(C)c1ccc(CNc2c(NCc3ccco3)c(=O)c2=O)cc1 [MC-190091],,25 µM,128 mg/L,,,,
CC(C)c1ccc(CNc2c(NCCc3ccco3)c(=O)c2=O)cc1 [MC-190092],250 µM,250 µM,256 mg/L,,,,
CC(C)c1ccc(OCC(=O)NNC(=S)NC(=O)c2ccoc2)cc1 [MC-190098],150 µM,,16 mg/L,,,,

SMILES,"IC50 [1, 3]",IC50 (RnpA; [4]),"MIC [2, 5]",IC50 (RnpA),MIC ([2]; 18 hours),"IC50 ([1]; RNase P IC50, ptRNATyr processing)","MIC ([2]; Staphylococcus aureus, UAMS1, 18 hours, read-out: MIC)"
O=C(NNC(=S)NC(=O)c1ccco1)c1ccncc1 [ST4145527],> 500 µM,> 500 µM,> 128 mg/L,,,,
COc1ccc(C(=O)NNC(=S)NC(=O)c2ccco2)cc1 [ST5254069],> 500 µM,> 500 µM,16 mg/L,,,,
O=C(NNC(=S)NC(=O)c1ccco1)c1cccnc1 [ST5254078],> 500 µM,> 500 µM,128 mg/L,,,,
O=C(/C=C/c1ccccc1)NC(=S)NNC(=O)c1ccco1 [ST5254083],75 µM,90 µM,16 mg/L,,,,
O=C(NC(=S)NNC(=O)c1ccco1)c1cccnc1 [ST5254088],> 500 µM,,> 128 mg/L,,,,
COc1ccc(C(=O)NC(=S)NNC(=O)c2ccco2)cc1 [ST5254089],180 µM,> 500 µM,64 mg/L,,,,
Cc1ccc(OCC(=O)NNC(=S)NC(=O)COc2ccccc2)cc1 [ST5521633],155 µM,,16 mg/L,,,,
Cc1ccccc1C(=O)NNC(=S)NC(=O)COc1ccccc1 [ST5521953],> 500 µM,> 500 µM,32 mg/L,,,,
COc1ccc(OCC(=O)NNC(=S)NC(=O)c2ccc(Br)o2)cc1 [ST5523216],425 µM,> 500 µM,32 mg/L,,,,
Cc1cc(Cl)ccc1OCC(=O)NNC(=S)NC(=O)/C=C/c1ccco1 [ST5524187],65 µM,175 µM,32 mg/L,,,,
O=C(NNC(=S)NC(=O)c1ccco1)c1ccc(NC(=O)c2ccccc2)cc1 [ST5524510],> 500 µM,,> 128 mg/L,,,,
Cc1ccccc1OCC(=O)NNC(=S)NC(=O)/C=C/c1ccco1 [ST5524973],80 µM,220 µM,32 mg/L,,,,
CC(C)(C)c1ccc(C(=O)Nc2ccc(C(=O)NNC(=S)NC(=O)c3ccco3)cc2)cc1 [ST5524997],70 µM,300 µM,32 mg/L,,,,
CCC(C)c1ccc(OCC(=O)NNC(=S)NC(=O)C2CCCCC2)cc1 (stereo not shown) [ST5525281],125 µM,275 µM,,,,,
CCC(C)c1ccc(OCC(=O)NNC(=S)NC(=O)c2ccc(-c3ccccc3)cc2)cc1 (stereo not shown) [ST5525289],> 500 µM,40 µM,64 mg/L,,,,
COc1ccccc1C(=O)NNC(=S)NC(=O)c1ccco1 [ST5525332],,,,> 500 µM,,> 500 µM,8 mg/L
CC(C)C(=O)Nc1ccc(C(=O)NNC(=S)NC(=O)c2ccco2)cc1 [ST5525955],145 µM,> 500 µM,> 128 mg/L,,,,
CCCCC(=O)Nc1ccc(C(=O)NNC(=S)NC(=O)c2ccco2)cc1 [ST5526667],90 µM,80 µM,> 128 mg/L,,,,
O=C(CNC(=O)C1CCCCC1)NNC(=S)NC(=O)c1ccco1 [ST5526682],200 µM,> 500 µM,> 128 mg/L,,,,
CCOc1ccc(C(=O)NC(=S)NNC(=O)COc2ccc(C(C)CC)cc2)cc1 (stereo not shown) [ST5528171],280 µM,> 500 µM,64 mg/L,,,,
COCCOC(=O)CCC(=O)NC(=S)NNC(=O)COc1ccc(C(C)C)cc1 [ST5528839],> 500 µM,,> 128 mg/L,,,,
CCCCCCCC(=O)NC(=S)NNC(=O)COc1ccc(C(C)CC)cc1 (stereo not shown) [ST5528863],490 µM,> 500 µM,> 128 mg/L,,,,
CC(C)COc1ccc(C(=O)NNC(=S)NC(=O)c2ccco2)cc1 [ST5529685],> 500 µM,> 500 µM,64 mg/L,,,,
CC(C)CNC(=S)NNC(=O)c1ccc(COc2ccc(C(C)(C)C)cc2)o1 [ST5607017],> 500 µM,70 µM,> 128 mg/L,,,,
O=C(Cc1ccccc1)NNC(=S)NC(=O)c1ccco1 [ST5682126],> 500 µM,,> 128 mg/L,,,,
